Data from patent US4153724A, “Benzoyl phenoxy acetic acid derivatives” (Kaken Chemical Co., Ltd., priority 1976, dated 1979).
Like-named read-outs stand apart in the source and are kept apart here.

Tests used:
[1] = found by the administration of ethyl-α-(p-chlorophenoxy)-isobutyrate; cited from earlier work
Normal mice [2] = assay: Test 1: hypolipidemic activity in normal mice; type: in vivo, ICR type male mice; settings: Mus musculus, 24 h, Table 4, reference compounds (IV), 1 time adm.
Test 3: acute toxicity = settings: mouse, in vivo
Description: In the acute toxicity tests, male mice (weight: 22 to 25 g) were used in groups of 10 each.
Eash active ingredient was dissolved in olive oil and the solution was orally administrated in a volume corresponding to the body weight.
LD50 was calculated by the area method from the mortal percent after 72 hours from the administration.
The compound numbers are the same with those of Tables 1 and 2.

Normal mice [3] = assay: Test 1: hypolipidemic activity in normal mice; type: in vivo, ICR type male mice; settings: 200 mg/kg oral, 1 time adm., 24 h
Description: The hypolipidemic activity in normal mice (lowering effect of normal blood lipid level).
In the tests, ICR type male mice (weight: about 35 g) were used in groups of 6 each.
Each active ingredient was suspended in a 1% aqueous solution of Tween-80 (polyoxyethylene sorbitane monoalkylate) (Atlas Co.) and the suspension was orally administrated in a dose of 200 mg/Kg.
After 24 hours from the administration, blood was sampled and the concentration of total cholesterols in blood-plasma was measured by the method described in Clinical chemistry Vol. 22 page 393 (1968) and the concentraton of triglyceride (neutral fat) was measured by Fletcher method (Clinica Chimica Acta) Vol. 10 page 451 (1964).
As the active ingredients, the compounds (I) and ethyl-α-(p-chlorophenoxy)-isobutylate having the formula [drawing 17] were used.
The same tests for hypolipidemic activity (lowering of blood lipid level) were carried out by using the reference compounds (IV).

Rats with hyperlipidemia = assay: Test 2: antihyperlipidemic activity in rats with dietary hyperlipidemia; type: in vivo, Wister type male rats; settings: 200 mg/kg oral, 4 days adm.
Description: The antihyperlipidemic activity in rats with dietary hyperlipidemia.
In the tests, Wister type male rats (weight: 140 g) were used in groups of 6 each.
A feed containing 2% of cholesterol, 1% of sodium cholate and 5% of cocconut oil was given for 4 days to cause hyperlipidemia.
Each active ingredient was suspended in a 1% aqueous solution of Tween 80 and the suspension was orally administrated in a dose of 100 mg/Kg or 200 mg/Kg once daily for 4 days starting with the supply of the cholesterol supplemented diet.
After 24 hours from the final administration, blood was sampled and the concentration of total cholesterols and the concentration of triglyceride were measured by the methods of Test 1.

[4] = read-out: Total cholesterol (lowering of blood lipid level)
[5] = read-out: Triglyceride (lowering of blood lipid level)
[6] = Table 3, male mice, oral in olive oil, 72 hours, read-out: LD50 oral
[7] = series (a), comparison with compound 1 (Normal 62.6)
[8] = series (a), comparison with compound 1 (Normal 83.6)
[9] = series (b), comparison with compounds 2-12 (Normal 52.0)
[10] = series (b), comparison with compounds 2-12 (Normal 69.3)
[11] = series (a), comparison with compound 1 (P-control 141.9)
[12] = series (a), comparison with compound 1 (P-control 302.4)
[13] = series (b), comparison with compounds 2-12 (P-control 92.0, Normal 37.6)
[14] = series (b), comparison with compounds 2-12 (P-control 260.0, Normal 57.2)
[15] = po, Table 4, reference compounds (IV), read-out: LD50

SMILES | inhibition in vivo at 200 mg/kg (Normal mice [2]; [4]) [%] | inhibition in vivo at 200 mg/kg (Normal mice [2]; [5]) [%] | LD50 at 72 h (Test 3: acute toxicity; [6]) [mg/kg] | Decrease of triglyceride (Normal mice [3]; [9]) [mg/dL] | Decrease of cholesterol (Normal mice [3]; [10]) [mg/dL] | Decrease of triglyceride (Rats with hyperlipidemia; [13]) [mg/dL] | Serum total cholesterol concentration (Rats with hyperlipidemia; [14]) [mg/dL] | LD50 at 72 h (Test 3: acute toxicity; [15]) [mg/kg] | also measured
CCOC(=O)C(C)(C)Oc1ccc(Cl)cc1 [***, ethyl-α-(p-chlorophenoxy)-isobutylate, reference compound] | 15 | 10 | 1500 | 46.8 ± 3.5 | 55.4 ± 3.1 | 62.5 ± 9.5 | 258.5 ± 16.0 |  | hepatic disease (hepatitis) [1]: found; Decrease of triglyceride (Normal mice [3]; [7]): 46.6 ± 7.3 mg/dL; Decrease of cholesterol (Normal mice [3]; [8]): 69.0 ± 5.3 mg/dL; Decrease of triglyceride (Rats with hyperlipidemia; [11]): 80.9 ± 17.8 mg/dL; Serum total cholesterol concentration (Rats with hyperlipidemia; [12]): 285.5 ± 25.3 mg/dL
CCOC(=O)C(Oc1ccc(C(=O)c2ccc(Cl)cc2)cc1)C1CCCCC1 (centres unmarked) [Invention Compound 1, Ethyl 2-[p-(4-chlorobenzoyl)-phenoxy]-cyclohexyl acetate] |  |  | 2500 |  |  |  |  |  | Decrease of triglyceride (Normal mice [3]; [7]): 52.2 ± 7.6 mg/dL; Decrease of cholesterol (Normal mice [3]; [8]): 59.4 ± 4.8 mg/dL; Decrease of triglyceride (Rats with hyperlipidemia; [11]): 69.7 ± 13.8 mg/dL; Serum total cholesterol concentration (Rats with hyperlipidemia; [12]): 126.5 ± 8.1 mg/dL
CCOC(=O)C(Oc1ccc(C(=O)c2ccc(F)cc2)cc1)C1CCCCC1 (centres unmarked) [Invention Compound 2, Ethyl-2-[p-(4-fluorobenzoyl)-phenoxy]-cyclohexyl acetate] |  |  | 1000 |  |  | 88.5 ± 12.3 | 215.3 ± 6.7 |  | 
CCOC(=O)C(Oc1ccc(C(=O)c2ccccc2)cc1)C1CCCCC1 (centres unmarked) [Invention Compound 3] |  |  | 1000 | 60.1 ± 2.8 | 66.6 ± 1.9 | 81.6 ± 7.3 | 211.0 ± 5.5 |  | 
CCOC(=O)C(Oc1ccc(C(=O)c2ccc(OC)cc2)cc1)C1CCCCC1 (centres unmarked) [Invention Compound 4] |  |  | 2500 | 38.2 ± 2.5 | 51.9 ± 2.6 | 88.7 ± 8.9 | 187.0 ± 18.1 |  | 
CCOC(=O)C(Oc1ccc(C(=O)c2cccc(F)c2)cc1)C1CCCCC1 (centres unmarked) [Invention Compound 5] |  |  | 3500 | 60.0 ± 4.2 | 54.5 ± 2.6 | 90.3 ± 16.8 | 147.5 ± 8.3 |  | 
CCOC(=O)C(Oc1ccc(C(=O)c2ccccc2F)cc1)C1CCCCC1 (centres unmarked) [Invention Compound 6] |  |  | 1000 |  |  | 89.2 ± 15.6 | 243.0 ± 6.1 |  | 
CCOC(=O)C(Oc1ccc(C(=O)c2cccc(Cl)c2)cc1)C1CCCCC1 (centres unmarked) [Invention Compound 7, Ethyl 2-[p-(3-chlorobenzoyl)-phenoxy]-cyclohexyl acetate] |  |  | 2500 | 45.5 ± 5.4 | 56.4 ± 5.1 | 52.1 ± 9.0 | 123.8 ± 9.1 |  | 
CCOC(=O)C(Oc1ccc(C(=O)c2ccccc2Cl)cc1)C1CCCCC1 (centres unmarked) [Invention Compound 8] |  |  | 1000 |  |  | 75.6 ± 8.3 | 185.4 ± 7.1 |  | 
CCOC(=O)C(Oc1ccc(C(=O)c2ccc(C)cc2)cc1)C1CCCCC1 (centres unmarked) [Invention Compound 9, Ethyl 2-[p-(4-methylbenzoyl)-phenoxy]-cyclohexyl acetate] |  |  | 3500 | 56.9 ± 6.1 | 59.1 ± 3.4 | 58.5 ± 6.7 | 188.7 ± 18.4 |  | 
CCOC(=O)C(Oc1ccc(C(=O)c2cccc(C)c2)cc1)C1CCCCC1 (centres unmarked) [Invention Compound 10] |  |  | 3000 |  |  | 73.6 ± 10.0 | 196.1 ± 13.2 |  | 
CCOC(=O)C(Oc1ccc(C(=O)c2ccccc2C)cc1)C1CCCCC1 (centres unmarked) [Invention Compound 11] |  |  | 700 |  |  | 89.4 ± 7.7 | 203.5 ± 12.1 |  | 
CCOC(=O)C(Oc1ccc(C(=O)c2ccccc2F)cc1)c1ccccc1 (centres unmarked) [compound 1] | 18 | 36 |  |  |  |  |  | 1500 | 
CCOC(=O)C(Oc1ccc(C(=O)c2cccc(F)c2)cc1)c1ccccc1 (centres unmarked) [compound 3] | 16 | 19 |  |  |  |  |  | 2000 | 
CCOC(=O)C(Oc1ccc(C(=O)c2ccc(F)cc2)cc1)c1ccccc1 (centres unmarked) [compound 5] | 21 | 1 |  |  |  |  |  | 1500 | 
CCOC(=O)C(Oc1ccc(C(=O)c2ccccc2Cl)cc1)c1ccccc1 (centres unmarked) [compound 7, Ethyl 2-[p-(2-chlorobenzoyl)-phenoxy]phenyl acetate] | 16 | 8 |  |  |  |  |  | > 10000 | 
CCOC(=O)C(Oc1ccc(C(=O)c2ccc(Cl)cc2)cc1)c1ccccc1 (centres unmarked) [compound 11, Ethyl 2-[p-(4-chlorobenzoyl)-phenoxy]phenyl acetate] | 24 | 52 |  |  |  |  |  | 3000 | 
CCOC(=O)C(Oc1ccc(C(=O)c2ccccc2C)cc1)c1ccccc1 (centres unmarked) [compound 13, ethyl 2-[p-(2-methylbenzoyl)-phenoxy] phenyl acetate] | 27.7 | 41.9 |  |  |  |  |  | > 2000 | 
Cc1ccccc1C(=O)c1ccc(OC(C(=O)O)c2ccccc2)cc1 (centres unmarked) [compound 14, 2-[P-(2-methylbenzoyl)-phenoxy]phenyl acetic acid] | 21 | 2 |  |  |  |  |  |  | 
O=C(c1ccccc1)c1ccc(OC(C(=O)O)c2ccccc2)cc1 (centres unmarked) [compound 20] | 19 | 7 |  |  |  |  |  | > 3000 | 
